# Test system: M. catarrhalis A894
# Experiment: Minimal inhibitory concentration (MIC), microdilution method in cation-adjusted Mueller-Hinton Broth (CLSI M7-A7)
# Assay type: cell-based
# Conditions: strain A894; for MIC: Moraxella catarrhalis
# Procedure: Minimal inhibitory concentrations (MICs; mg/1) were determined in cation-adjusted Mueller-Hinton Broth by a microdilution method following the description given in “Methods for Dilution Antimicrobial Susceptibility Tests for Bacteria that Grow Aerobically”, Approved standard, 7th ed., Clinical and Laboratory Standards Institute (CLSI) Document M7-A7, Wayne, Pa., USA, 2006.
Compound,MIC [µg/mL],MIC for M. catarrhalis A894 [µg/mL]
"O=C1CSc2ccc(N3C[C@@H](CNCC4Cn5c(=O)ccc6ncc(F)c4c65)OC3=O)cc2N1 (mixture of isomers) [Example 100, (RS)-3-fluoro-4-({[(R)-2-oxo-3-(3-oxo-3,4-dihydro-2H-benzo[1,4]thiazin-6-yl)-oxazolidin-5-ylmethyl]-amino}-methyl)-4,5-dihydro-pyrrolo[3,2,1-de][1,5]naphthyridin-7-one]",0.031,–
"(1R,2R)-2-hydroxymethyl-1-{3-[(R)-2-oxo-3-(3-oxo-3,4-dihydro-2H-benzo[1,4]thiazin-6-yl)-oxazolidin-5-yl]-propylamino}-1,2-dihydro-pyrrolo[3,2,1-ij]quinolin-4-one and (1S,2S)-2-hydroxymethyl-1-{3-[(R)-2-oxo-3-(3-oxo-3,4-dihydro-2H-benzo[1,4]thiazin-6-yl)-oxazolidin-5-yl]-propylamino}-1,2-dihydro-pyrrolo[3,2,1-ij]quinolin-4-one [Example 163]",–,0.031
"O=C1COc2ccc(N3C[C@@H](CNCCC4Cn5c(=O)ccc6ccc(F)c4c65)OC3=O)cc2N1 (mixture of isomers) [Example 9, (1RS)-9-fluoro-1-(2-{[(R)-2-oxo-3-(3-oxo-3,4-dihydro-2H-benzo[1,4]oxazin-6-yl)-oxazolidin-5-ylmethyl]-amino}-ethyl)-1,2-dihydro-pyrrolo[3,2,1-ij]quinolin-4-one]",≤ 0.031,–
"O=C1CSc2ccc(N3C[C@H](CCCN[C@@H]4Cn5c(=O)ccc6ncc(F)c4c65)OC3=O)cc2N1 [Example 148, (S)-3-fluoro-4-{3-[(S)-2-oxo-3-(3-oxo-3,4-dihydro-2H-benzo[1,4]thiazin-6-yl)-oxazolidin-5-yl]-propylamino}-4,5-dihydro-pyrrolo[3,2,1-de][1,5]naphthyridin-7-one]",≤ 0.031,–
"(RS)-1-({[(R)-3-(4-ethoxy-phenyl)-2-oxo-oxazolidin-5-ylmethyl]-amino}-methyl)-9-fluoro-1,2-dihydro-pyrrolo[3,2,1-ij]quinolin-4-one [Example 36]",–,8
"C[C@H]1[C@H](NCCC[C@@H]2CN(c3ccc4c(n3)NC(=O)CS4)C(=O)O2)c2c(F)ccc3ccc(=O)n1c23 (relative stereo) [Example 185, (1R*,2S*)-9-fluoro-2-methyl-1-{3-[(R)-2-oxo-3-(3-oxo-3,4-dihydro-2H-pyrido[3,2-b][1,4]thiazin-6-yl)-oxazolidin-5-yl]-propylamino}-1,2-dihydro-pyrrolo[3,2,1-ij]quinolin-4-one]",≤ 0.031,–
"Cc1ccc(N2C[C@@H](CCNC[C@@H]3Cn4c(=O)ccc5ccc(F)c3c54)OC2=O)cc1F (racemic) [Example 6, (1RS)-9-fluoro-1-({2-[(RS)-3-(3-fluoro-4-methyl-phenyl)-2-oxo-oxazolidin-5-yl]-ethylamino}-methyl)-1,2-dihydro-pyrrolo[3,2,1-U]quinolin-4-one]",–,0.125
